Experimental data as given in PubChem BioAssay AID248 (DTP/NCI, 2004).
Values joined by “and” are separate entries in the source; they are usually repeats but may differ in a detail not shown here. Equal entries are not always repeated. Inconclusive results and toxic doses are left out. Rule as the data show it: active = T/C of 150% or more; inactive = T/C below 125%.

System: L1210 leukemia ip in BDF1 mice, survival T/C
Assay: NCI In Vivo Anticancer Drug Screen. Data for tumor model L1210 Leukemia (intraperitoneal) in B6D2F1 (BDF1) mice
Details: higher = longer survival
Procedure, shortened: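 Tumor was transplanted into mice, which were then dosed with test compound or vehicle alone. Survival was recorded for each group, and the treated figure was expressed relative to the control figure.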

[1] = endpoint: mean survival time, dose: 100.0 mg/kg/injection, schedule: Q01DX009 (ip), vehicle: saline with Tween-80
[2] = endpoint: mean survival time, dose: 100.0 mg/kg/injection, schedule: Q04DX003 (ip), vehicle: saline with Tween-80
[3] = endpoint: mean survival time, dose: 200.0 mg/kg/injection, schedule: Q01DX009 (ip), vehicle: saline with Tween-80
[4] = endpoint: mean survival time, dose: 200.0 mg/kg/injection, schedule: Q04DX003 (ip), vehicle: saline with Tween-80
[5] = endpoint: mean survival time, dose: 400.0 mg/kg/injection, schedule: Q04DX003 (ip), vehicle: saline with Tween-80
[6] = endpoint: mean survival time, dose: 100.0 mg/kg/injection, schedule: Q04DX003 (ip), vehicle: saline
[7] = endpoint: mean survival time, dose: 200.0 mg/kg/injection, schedule: Q04DX003 (ip), vehicle: saline
[8] = endpoint: mean survival time, dose: 100.0 mg/kg/injection, schedule: Q01DX009 (ip), vehicle: Klucel (hydroxypropylcellulose) (HPC)
[9] = endpoint: mean survival time, dose: 200.0 mg/kg/injection, schedule: Q01DX009 (ip), vehicle: Klucel (hydroxypropylcellulose) (HPC)
[10] = endpoint: mean survival time, dose: 400.0 mg/kg/injection, schedule: Q01DX009 (ip), vehicle: Klucel (hydroxypropylcellulose) (HPC)
[11] = endpoint: mean survival time, dose: 400.0 mg/kg/injection, schedule: Q04DX003 (ip), vehicle: saline
[12] = endpoint: mean survival time, dose: 100.0 mg/kg/injection, schedule: Q01DX001 (ip), vehicle: saline with Tween-80
[13] = endpoint: mean survival time, dose: 100.0 mg/kg/injection, schedule: Q01DX009 (ip), vehicle: acetone

Measured: T/C

CC12C3C(=O)NC45CCCC41C5(c1ccccc1)C32c1ccccc1 (stereo not drawn)
inactive: endpoint: mean survival time, dose: 100.0 mg/kg/injection, schedule: Q01DX001 (ip), vehicle: Klucel (hydroxypropylcellulose) (HPC) 96 % of control | endpoint: mean survival time, dose: 200.0 mg/kg/injection, schedule: Q01DX001 (ip), vehicle: Klucel (hydroxypropylcellulose) (HPC) 96 % of control | endpoint: mean survival time, dose: 400.0 mg/kg/injection, schedule: Q01DX001 (ip), vehicle: Klucel (hydroxypropylcellulose) (HPC) 94 % of control

C[C@]12C=CC(=O)C=C1CC[C@@H]1[C@@H]2CC[C@]2(C)OC(=O)CC[C@@H]12
inactive: endpoint: mean survival time, dose: 125.0 mg/kg/injection, schedule: Q01DX Z (sc), vehicle: steriod suspending solution 103 % of control | endpoint: mean survival time, dose: 250.0 mg/kg/injection, schedule: Q01DX Z (sc), vehicle: steriod suspending solution 102 % of control | endpoint: mean survival time, dose: 500.0 mg/kg/injection, schedule: Q01DX Z (sc), vehicle: steriod suspending solution 101 % of control | endpoint: mean survival time, dose: 1000.0 mg/kg/injection, schedule: Q01DX Z (sc), vehicle: steriod suspending solution 101 % of control

COc1ccccc1Cl
inactive: [1] 94 % of control | [2] 106 % of control | [3] 86 % of control | [4] 104 % of control | [5] 93 % of control

CCNNC
inactive: endpoint: mean survival time, dose: 12.5 mg/kg/injection, schedule: Q04DX003 (ip), vehicle: saline 104 % of control | endpoint: mean survival time, dose: 25.0 mg/kg/injection, schedule: Q04DX003 (ip), vehicle: saline 103 % of control | endpoint: mean survival time, dose: 50.0 mg/kg/injection, schedule: Q04DX003 (ip), vehicle: saline 101 % of control | [6] 111 % of control | [7] 108 % of control

CC(=O)Nc1ccc(NC(=O)Nc2cccc(Cl)c2C)cc1
inactive: [8] 89 % of control | [9] 89 % of control | [10] 91 % of control

BrC1=C(Br)CCCC1
inactive: [6] 91 % of control | [7] 91 % of control | [11] 93 % of control

CCOC(=O)/C(C#N)=C\c1cc(=O)c(OC)co1
inactive: [6] 98 % of control | [7] 104 % of control | [11] 102 % of control

CCCCCC=C(c1ccccc1)c1ccccc1
inactive: [12] 92 % of control | endpoint: mean survival time, dose: 200.0 mg/kg/injection, schedule: Q01DX001 (ip), vehicle: saline with Tween-80 104 % of control | endpoint: mean survival time, dose: 400.0 mg/kg/injection, schedule: Q01DX001 (ip), vehicle: saline with Tween-80 95 % of control

O=S(=O)(c1ccccc1)S(=O)(=O)c1ccccc1
inactive: [8] 107 % of control | endpoint: mean survival time, dose: 100.0 mg/kg/injection, schedule: Q04DX002 (ip), vehicle: Klucel (hydroxypropylcellulose) (HPC) 105 % of control | [9] 88 % of control | endpoint: mean survival time, dose: 200.0 mg/kg/injection, schedule: Q04DX002 (ip), vehicle: Klucel (hydroxypropylcellulose) (HPC) 86 % of control | [10] 96 % of control | endpoint: mean survival time, dose: 400.0 mg/kg/injection, schedule: Q04DX002 (ip), vehicle: Klucel (hydroxypropylcellulose) (HPC) 90 % of control

CC(=O)Oc1ccc2c3c(cccc13)CC2
inactive: [1] 97 % of control | [3] 96 % of control | endpoint: mean survival time, dose: 400.0 mg/kg/injection, schedule: Q01DX009 (ip), vehicle: saline with Tween-80 92 % of control

O=NN(CCCl)C(=O)NC1CCC(=O)NC1=O (stereo not drawn)
inactive: endpoint: mean survival time, dose: 0.5 mg/kg/injection, schedule: Q01DX001 (ip), vehicle: other 104 % of control | endpoint: mean survival time, dose: 1.0 mg/kg/injection, schedule: Q01DX001 (ip), vehicle: other 106 % of control | endpoint: mean survival time, dose: 2.0 mg/kg/injection, schedule: Q01DX001 (ip), vehicle: other 118 % of control | endpoint: mean survival time, dose: 36.0 mg/kg/injection, schedule: Q01DX001 (ip), vehicle: other 93 % of control | endpoint: median survival time, dose: 0.63 mg/kg/injection, schedule: Q01DX001 (ip), vehicle: other 106 % of control | endpoint: median survival time, dose: 0.63 mg/kg/injection, schedule: Q01DX001 (ip), vehicle: saline 110 % of control | endpoint: median survival time, dose: 0.63 mg/kg/injection, schedule: Q01DX001 (iv), vehicle: other 103 % of control | endpoint: median survival time, dose: 0.63 mg/kg/injection, schedule: Q01DX001 (iv), vehicle: saline 108 % of control | endpoint: median survival time, dose: 1.25 mg/kg/injection, schedule: Q01DX001 (ip), vehicle: other 116 % of control | endpoint: median survival time, dose: 1.25 mg/kg/injection, schedule: Q01DX001 (ip), vehicle: saline 120 % of control | endpoint: median survival time, dose: 1.25 mg/kg/injection, schedule: Q01DX001 (iv), vehicle: other 118 % of control | endpoint: median survival time, dose: 1.25 mg/kg/injection, schedule: Q01DX001 (iv), vehicle: saline 106 % of control | endpoint: median survival time, dose: 2.5 mg/kg/injection, schedule: Q01DX001 (iv), vehicle: other 122 % of control | endpoint: median survival time, dose: 2.5 mg/kg/injection, schedule: Q01DX001 (iv), vehicle: saline 118 % of control | endpoint: median survival time, dose: 40.0 mg/kg/injection, schedule: Q01DX001 (ip), vehicle: other 101 % of control | endpoint: median survival time, dose: 40.0 mg/kg/injection, schedule: Q01DX001 (ip), vehicle: saline 104 % of control
active: endpoint: mean survival time, dose: 5.5 mg/kg/injection, schedule: Q01DX001 (ip), vehicle: other 172 % of control | endpoint: mean survival time, dose: 6.0 mg/kg/injection, schedule: Q01DX001 (ip), vehicle: other 203 % of control | endpoint: mean survival time, dose: 8.0 mg/kg/injection, schedule: Q01DX001 (ip), vehicle: other 246 % of control | endpoint: mean survival time, dose: 11.0 mg/kg/injection, schedule: Q01DX001 (ip), vehicle: other 300 % of control | endpoint: mean survival time, dose: 12.0 mg/kg/injection, schedule: Q01DX001 (ip), vehicle: other 292 % of control | endpoint: mean survival time, dose: 16.0 mg/kg/injection, schedule: Q01DX001 (ip), vehicle: other 315 % of control and 326 % of control | endpoint: mean survival time, dose: 22.0 mg/kg/injection, schedule: Q01DX001 (ip), vehicle: other 340 % of control | endpoint: mean survival time, dose: 24.0 mg/kg/injection, schedule: Q01DX001 (ip), vehicle: other 220 % of control | endpoint: mean survival time, dose: 33.0 mg/kg/injection, schedule: Q01DX001 (ip), vehicle: other 340 % of control | endpoint: mean survival time, dose: 44.0 mg/kg/injection, schedule: Q01DX001 (ip), vehicle: other 295 % of control | endpoint: median survival time, dose: 5.0 mg/kg/injection, schedule: Q01DX001 (ip), vehicle: other 227 % of control | endpoint: median survival time, dose: 5.0 mg/kg/injection, schedule: Q01DX001 (ip), vehicle: saline 193 % of control | endpoint: median survival time, dose: 5.0 mg/kg/injection, schedule: Q01DX001 (iv), vehicle: other 151 % of control | endpoint: median survival time, dose: 5.0 mg/kg/injection, schedule: Q01DX001 (iv), vehicle: saline 150 % of control | endpoint: median survival time, dose: 10.0 mg/kg/injection, schedule: Q01DX001 (ip), vehicle: other 600 % of control | endpoint: median survival time, dose: 10.0 mg/kg/injection, schedule: Q01DX001 (ip), vehicle: saline 598 % of control | endpoint: median survival time, dose: 10.0 mg/kg/injection, schedule: Q01DX001 (iv), vehicle: other 290 % of control | endpoint: median survival time, dose: 10.0 mg/kg/injection, schedule: Q01DX001 (iv), vehicle: saline 253 % of control | endpoint: median survival time, dose: 20.0 mg/kg/injection, schedule: Q01DX001 (ip), vehicle: other 550 % of control | endpoint: median survival time, dose: 20.0 mg/kg/injection, schedule: Q01DX001 (ip), vehicle: saline 596 % of control | endpoint: median survival time, dose: 20.0 mg/kg/injection, schedule: Q01DX001 (iv), vehicle: other 599 % of control | endpoint: median survival time, dose: 20.0 mg/kg/injection, schedule: Q01DX001 (iv), vehicle: saline 600 % of control

O=[N+]([O-])c1cc(-c2ccccc2)cc([N+](=O)[O-])c1Cl
inactive: endpoint: mean survival time, dose: 50.0 mg/kg/injection, schedule: Q01DX009 (ip), vehicle: acetone 97 % of control | [13] 100 % of control | [6] 96 % of control | endpoint: mean survival time, dose: 200.0 mg/kg/injection, schedule: Q01DX009 (ip), vehicle: acetone 95 % of control | [7] 102 % of control | [11] 102 % of control

Nc1cc(=O)[nH]c(=S)n1-c1ccc(Br)cn1
inactive: [2] 98 % of control | [4] 86 % of control | [5] 104 % of control

O=S(=O)(C1=C(c2ccccc2)CCCC1)c1ccccc1
inactive: [13] 104 % of control

CSc1ccc(C(=O)Nc2c(N)ncnc2N)cc1
inactive: endpoint: mean survival time, dose: 25.0 mg/kg/injection, schedule: Q01DX001 (ip), vehicle: saline 97 % of control | endpoint: mean survival time, dose: 50.0 mg/kg/injection, schedule: Q01DX001 (ip), vehicle: saline 87 % of control | [12] 100 % of control | endpoint: mean survival time, dose: 100.0 mg/kg/injection, schedule: Q01DX001 (ip), vehicle: saline 88 % of control

O=C(O)C(=S)Cc1cc(=O)[nH]c(=S)[nH]1
inactive: [2] 102 % of control | [4] 97 % of control | [5] 92 % of control
